Assay results published in PMC4438668, “Quantitative High-Throughput Identification of Drugs as Modulators of Human Constitutive Androstane Receptor” (Scientific Reports, 2015).
pEC50, pIC50: −log10 of the molar value. “Also recorded” adds a separate entry of the source. Like-named read-outs stand apart in the source and are kept apart here.

How the values were obtained:
human CAR (hCAR) [1] = target: T1, human CAR (hCAR) (Homo sapiens, UniProt Q14994)
T1 sequence (Q14994 1-348 isoform Q14994-2): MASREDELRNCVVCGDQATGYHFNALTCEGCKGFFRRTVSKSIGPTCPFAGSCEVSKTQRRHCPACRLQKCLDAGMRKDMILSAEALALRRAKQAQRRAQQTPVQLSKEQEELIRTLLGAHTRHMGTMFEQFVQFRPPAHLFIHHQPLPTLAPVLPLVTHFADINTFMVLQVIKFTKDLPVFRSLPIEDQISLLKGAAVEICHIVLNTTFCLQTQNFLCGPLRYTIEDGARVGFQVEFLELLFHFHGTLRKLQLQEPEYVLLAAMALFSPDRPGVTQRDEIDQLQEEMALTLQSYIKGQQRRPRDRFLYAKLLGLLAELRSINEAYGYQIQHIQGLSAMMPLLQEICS
Method: (§2) The pEF6/V5-hCAR expression plasmid and the pGL4.17[luc2/Neo]-CYP2B6-2.2kb construct containing both the PBREM and XREM[40], were co-transfected in HepG2 cells using lipofectamine 2000 reagents (Life Technologies) following the manufacturer’s instruction. Dulbecco’s Modified Eagle Medium (DMEM) containing 10% FBS, 100 U/ml penicillin, 100 μg/ml streptomycin, G418 (0.6-1 mg/ml) and blasticidin (10 μg/ml) were used for the selection of colonies containing a mixed population of drug resistant cells. Subsequently, these cells were transferred to collagen-coated 48-well plates and continually cultured in the same media. Single colony containing both plasmids was selected and functionally verified.
(§3) The generated stable cell line, namely HepG2-CYP2B6-hCAR, was used to identify hCAR modulators in a qHTS platform. Assays were run in both agonist and antagonist modes. In brief, HepG2-CYP2B6-hCAR cells were dispensed at 2,500 cells/well in 1,536-well plates (Greiner Bio-One North America, Monroe, NC) using a Multidrop Combi (Thermo Fisher Scientific Inc., Waltham, MA). […] The assays were incubated at 37 °C for 24 h followed by the addition of 4 μl of the ONE-Glo luciferase reagent (Promega, Madision, WI). The assay plates were incubated at room temperature for 20 min and luminescence intensity was quantified using a ViewLux plate reader (PerkinElmer, Shelton, CT).
(§4) Concentration-response titration points for each compound were then fitted to the Hill equation, yielding half-maximal inhibition (IC50) or activation (EC50) and maximal response (efficacy) values. Compounds from the primary qHTS screen were classified into four major curve classes according to quality of curve fit, potency and efficacy. Class 1.1, 1.2, 2.1, and 2.2 curves were high-quality and thus high-confidence concentration-response curves (CRCs). […] All other curve classes (including those curves with single point activity) were deemed inconclusive. […] Follow-up studies were performed using a new aliquot of samples to confirm sample integrity and assay reproducibility.
(§5) All of these compounds were retested in both HepG2-CYP2B6-hCAR and cell viability assays.

human CAR (hCAR) [2] = target: T1, human CAR (hCAR); experiment: hCAR luciferase reporter qHTS, antagonist mode (HepG2-CYP2B6-hCAR cells, CITCO co-treatment); details: antagonist mode;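 further: stable HepG2 line carrying hCAR plus a CYP2B6 promoter (PBREM/XREM) luciferase reporter, 1536-well format, 24 h compound exposure at 37 °C, then luminescence read with ONE-Glo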
Method: as §2, §3, §4, §5

HepG2-CYP2B6-hCAR cells = experiment: Cell viability assay (CellTiter-Glo ATP quantitation); format: cell-based, human; parameters: key to Cytotoxicity (activity call): Inactive: considered inactive if efficacy is less than 30%; details: 24 h
Method: (§1) The potential cytotoxicity of the NPC compounds in HepG2-CYP2B6-hCAR cells was measured using a luciferase-coupled ATP quantitation assay (CellTiter-Glo viability assay, Promega). The change of intracellular ATP content indicates the number of metabolically competent cells. The cells were seeded at 2,500 cells/5 μl in 1536-well plates and were exposed to each test compound at concentrations and treatment duration as previously mentioned. The assay plates were incubated for 24 h at 37 °C, followed by the addition of 4 μl/well of CellTiter-Glo reagent. After 30 min incubation at RT, the luminescence intensity of the plates was measured using a ViewLux plate reader.

[3] = as above; format: cell-based, human; parameters: key to Cytotoxicity (activity call): Inactive: considered inactive if efficacy is less than 30%; details: human, HepG2-CYP2B6-hCAR cells, read-out: Cytotoxicity Potency
Method: as §1

CYP2B6 = CYP2B6 mRNA expression in HPH (real-time PCR); details: for Effect on CYP2B6 mRNA expression / Induction of hCAR target genes: HPH; for Effect on CYP2B6 mRNA expression: 24 h, vs vehicle control (0.1% DMSO); for Induction of hCAR target genes: target genes CYP2B6 and CYP3A4
Method: (§6) HPH were isolated from human liver specimens by a modification of the two-step collagenase digestion method as described previously[43] or obtained from Bioreclamation In Vitro Technologies (Baltimore, MD). Fresh HPH were seeded at 1.5 × 10^6, 7.5 × 10^5 or 4.7 × 10^4 cells/well in 6-well, 12-well, or 96-well collagen coated plates, respectively. Hepatocytes were cultured for 36 h at 37 °C before treatment with specified compounds for another 24 or 72 h for detection of mRNA or protein expression in the 6-well and 12-well plates.
(§7) Total RNA was isolated from treated hepatocytes using the TRIzol® reagent and reverse transcribed using a High Capacity cDNA Archive Kit (Applied Biosystems, Foster City, CA) following the manufacturers’ instructions. CYP2B6 and CYP3A4 mRNA expression were normalized against that of GAPDH. Real-time PCR assays were performed in 96-well optical plates on an ABI Prism 7000 Sequence Detection System with SYBR Green PCR Master Mix. […] Induction values were calculated using the equation: Fold = 2ΔΔCt, where ΔCt represents the differences in cycle threshold numbers between CYP2B6 or CYP3A4 and GAPDH, and ΔΔCt represents the relative change in these differences between control and treatment groups.

CYP3A4 = CYP3A4 mRNA expression in HPH (real-time PCR); format: cell-based, human; details: for Effect on CYP3A4 mRNA expression: HPH, 24 h, vs vehicle control (0.1% DMSO)
Method: as §6, §7

[4] = system: human primary hepatocytes; experiment: MTT cytotoxicity assay in HPH; format: cell-based; details: 1 μM, 24 hours, donor HL-104
Method: Figure S1. […] Human primary
was carried out following the manufacturer’s instruction. Data represent the mean ± SD (n =3).
(1 picture or pasted object on this page, not shown here)

hPXR = target: T2, hPXR (Homo sapiens, UniProt O75469); experiment: Transient hPXR luciferase assay in HepG2 cells (CYP2B6-2.2 kb reporter); format: cell-based
T2 construct: expressed in transfected cells; host or cells: HepG2 (transient transfection)
T2 sequence (O75469 1-434): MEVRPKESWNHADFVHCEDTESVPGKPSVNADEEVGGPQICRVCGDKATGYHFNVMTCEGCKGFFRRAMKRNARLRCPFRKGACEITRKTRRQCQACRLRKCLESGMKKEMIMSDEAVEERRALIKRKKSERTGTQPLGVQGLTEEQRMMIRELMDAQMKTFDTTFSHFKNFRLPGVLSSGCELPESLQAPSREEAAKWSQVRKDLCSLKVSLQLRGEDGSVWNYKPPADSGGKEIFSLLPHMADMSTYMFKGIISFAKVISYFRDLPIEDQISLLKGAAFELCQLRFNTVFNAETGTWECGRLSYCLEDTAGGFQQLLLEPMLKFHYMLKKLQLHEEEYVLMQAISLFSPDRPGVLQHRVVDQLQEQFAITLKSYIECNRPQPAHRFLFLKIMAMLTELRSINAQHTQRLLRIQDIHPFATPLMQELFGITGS
Method: HepG2 cells cultured in a 24-well plate were co-transfected with the CYP2B6-2.2 kb reporter and hPXR expression vectors using a Lipofectamine® 2000 Transfection Kit (Life Technologies) following the manufacturer’s instruction. […] Cell lysates were assayed for firefly luciferase activities normalized against the activities of co-transfected Renilla luciferase using a Dual-Luciferase Kit (Promega). Data were represented as mean±SD of three individual transfections.

[5] = system: CYP2B6 and CYP3A4 proteins; experiment: Immunoblotting of CYP2B6 and CYP3A4 proteins in HPH; format: cell-based, human; details: immunoblotting (Fig. 3C)
Method: Homogenate proteins (30 μg) from treated HPH were resolved on an SDS polyacrylamide gel and electrophoretically transferred onto Immobilon-P polyvinylidene difluoride membranes and blocked using 5% blotting-grade blocker (nonfat dry milk, Bio-RAD). Subsequently, membranes were incubated with specific antibodies against CYP2B6 (1:200), CYP3A4 (1:5000), and β-actin (1:50,000) diluted in 1% blotting-grade blocker. β-Actin was used to normalize protein loadings. Membranes were washed using 1x Tris buffered saline–Tween 20 (Bio-RAD) and incubated with horseradish peroxidase goat anti-rabbit IgG antibody diluted at 1:5000, and developed using ECL Western blotting detection reagent (Thermo-Scientific Inc).

human CAR (hCAR) [6] = target: T1, human CAR (hCAR); experiment: hCAR luciferase reporter qHTS, agonist mode (HepG2-CYP2B6-hCAR cells, PK11195 co-treatment); details: agonist mode; for Follow-up Confirmation Efficacy: relative to CITCO (100%); for Primary Screen Efficacy: relative to CITCO Emax (100%)
Method: (§8) The generated stable cell line, namely HepG2-CYP2B6-hCAR, was used to identify hCAR modulators in a qHTS platform. Assays were run in both agonist and antagonist modes. In brief, HepG2-CYP2B6-hCAR cells were dispensed at 2,500 cells/well in 1,536-well plates (Greiner Bio-One North America, Monroe, NC) using a Multidrop Combi (Thermo Fisher Scientific Inc., Waltham, MA). […] Each NPC compound was tested at 8 concentrations ranging from 0.6 nM to 38.3 μM. The assays were incubated at 37 °C for 24 h followed by the addition of 4 μl of the ONE-Glo luciferase reagent (Promega, Madision, WI). The assay plates were incubated at room temperature for 20 min and luminescence intensity was quantified using a ViewLux plate reader (PerkinElmer, Shelton, CT).
as §4
(§9) These compounds were prepared in 1536-well compound plates at 11-point 3-fold dilution titrations in DMSO, with final concentrations ranging from 0.6 nM to 38.3 μM. All of these compounds were retested in both HepG2-CYP2B6-hCAR and cell viability assays.

CAR, CYP2B6, or CYP3A4 = details: previously known; reference not given; cited from earlier work
human CAR (hCAR) [7] = target: T1, human CAR (hCAR); remark: listed apart in the source
Method: as §8, §4, §9

EYFP-hCAR = target: T3, EYFP-hCAR (Homo sapiens, UniProt Q14994); experiment: Nuclear translocation of Ad/EYFP-hCAR in human primary hepatocytes; format: cell-based; details: HPH
T3 construct: expressed in transfected cells; host or cells: human primary hepatocytes infected with Ad/EYFP-hCAR
T3 sequence (Q14994 1-348 isoform Q14994-2): T1 sequence (Q14994 1-348 isoform Q14994-2)
Method: A recombinant adenovirus expressing enhanced yellow fluorescent protein-tagged hCAR (Ad/EYFP-hCAR) was generated as described previously. Hepatocytes cultured in 96-well collagen-coated plates in serum free Williams’ E medium were infected with Ad/EFYP-hCAR (1 μl/well) for 12 h before treatment with the vehicle control, DMSO (0.1%), PB (1 mM), and selected compounds for another 8 h. Subcellular localization of hCAR was visualized using a Nikon (Tokyo, Japan) C1-LU3 instrument based on an inverted Nikon Eclipse TE2000 microscope.

[8] = Follow-up Confirmation Potency (IC50), follow-up cherry-pick, 11-point titration
[9] = Primary Screen Potency (IC50), primary qHTS, 0.1 μM CITCO, 24 h
[10] = HPH donor HL-104, 24 h, daunorubicin 1, 2.5 and 5 µM, bortezomib 0.1, 0.5, and 1 µM
[11] = Follow-up Confirmation Potency (EC50), follow-up cherry-pick, 11-point titration
[12] = Primary Screen Potency (EC50), primary qHTS, 2.5 μM PK11195, 24 h

CCCCc1ccc(O)cc1 [4-butylphenol]
Identified as hCAR antagonist/deactivator in the qHTS (human CAR (hCAR) [1]): recognized in the current study

CC(C)C[C@H](NC(=O)[C@H](Cc1ccccc1)NC(=O)c1cnccn1)B(O)O [Bortezomib]
pIC50 (human CAR (hCAR) [2]; [8]): 7.52 | pIC50 (human CAR (hCAR) [2]; [9]): 7.70 | Primary Screen Efficacy (human CAR (hCAR) [2]; primary qHTS, relative to PK11195 (100%)): -103% | Cytotoxicity Efficacy (HepG2-CYP2B6-hCAR cells): -57% | IC50 at 24 h [3]: 1.25 µM | Concentration-dependent effect on CYP2B6 mRNA expression (CYP2B6; [10]): marked and concentration-dependent repression | Effect on CYP2B6 mRNA expression (CYP2B6): most potent repressors of CYP2B6 | Concentration-dependent effect on CYP3A4 mRNA expression (CYP3A4; [10]): marked and concentration-dependent repression | Cytotoxicity in HPH (MTT) [4]: not associated with significant cytotoxicity

COc1cccc2c1C(=O)c1c(O)c3c(c(O)c1C2=O)C[C@@](O)(C(C)=O)C[C@@H]3O[C@H]1C[C@H](N)[C@H](O)[C@H](C)O1 [Daunorubicin]
Cytotoxicity Efficacy (HepG2-CYP2B6-hCAR cells): -43% | IC50 at 24 h [3]: 15.9 µM | Effect on basal and RIF-induced PXR activity (hPXR; HepG2, 24 h, in the presence or absence of rifampicin (10 μM)): only repressed RIF-induced PXR activity | Effect on CYP2B6 mRNA expression (CYP2B6): most potent repressors of CYP2B6

O=c1cc(-c2ccccc2)oc2ccccc12 [Flavone]
Induction of CYP2B6 and CYP3A4 at the protein level [5]: preferential induction of CYP2B6 over CYP3A4 | pEC50 (human CAR (hCAR) [6]; [11]): 4.49 | pEC50 (human CAR (hCAR) [6]; [12]): 4.47 | Follow-up Confirmation Efficacy (human CAR (hCAR) [6]; follow-up cherry-pick): 200% | Primary Screen Efficacy (human CAR (hCAR) [6]; primary qHTS): 184% | hPXR activation (hPXR; data not shown): moderately activated hPXR | Known modulator of CAR, CYP2B6, or CYP3A4? (CAR, CYP2B6, or CYP3A4): Dietary flavonoids activate CAR | Effect on CYP2B6 mRNA expression (CYP2B6): significantly induced; also recorded: markedly induced | Effect on CYP3A4 mRNA expression (CYP3A4): marginal effect; also recorded: only marginally increased

CC(C)=CCOc1c2occc2cc2ccc(=O)oc12 [Imperatorin]
Induction of CYP2B6 and CYP3A4 at the protein level [5]: preferential induction of CYP2B6 over CYP3A4 | pEC50 (human CAR (hCAR) [6]; [11]): 4.85 | pEC50 (human CAR (hCAR) [6]; [12]): 4.97 | hPXR activation (hPXR): moderately activated hPXR | Known modulator of CAR, CYP2B6, or CYP3A4? (CAR, CYP2B6, or CYP3A4): Cyp2b10 inducer | Effect on CYP3A4 mRNA expression (CYP3A4): marginal effect; also recorded: only marginally increased | Follow-up Confirmation Efficacy (human CAR (hCAR) [7]): 238% | Primary Screen Efficacy (human CAR (hCAR) [7]): 146%

C[C@@H]1O[C@@H](O[C@H]2C[C@@H](O)[C@]3(CO)[C@H]4[C@H](O)C[C@]5(C)[C@@H](C6=CC(=O)OC6)CC[C@]5(O)[C@@H]4CC[C@]3(O)C2)[C@H](O)[C@H](O)[C@H]1O [Ouabain]
pIC50 (human CAR (hCAR) [2]; [8]): 6.33 | pIC50 (human CAR (hCAR) [2]; [9]): 6.52 | Cytotoxicity (activity call) (HepG2-CYP2B6-hCAR cells): Inactive | Follow-up Confirmation Efficacy (human CAR (hCAR) [1]): 0.47 (-99%) | Primary Screen Efficacy (human CAR (hCAR) [1]): 0.30 (-104%)

NNCCc1ccccc1 [Phenelzine]
pEC50 (human CAR (hCAR) [6]; [11]): 4.80 | pEC50 (human CAR (hCAR) [6]; [12]): 4.82 | Follow-up Confirmation Efficacy (human CAR (hCAR) [6]; follow-up cherry-pick): 70% | Primary Screen Efficacy (human CAR (hCAR) [6]; primary qHTS): 145% | Known modulator of CAR, CYP2B6, or CYP3A4? (CAR, CYP2B6, or CYP3A4): CYP3A4 weak inhibitor | Induction of hCAR target genes (CYP2B6): negligible induction | Induction of hCAR target genes (CYP2B6; listed as phenelzine): nor induced the expression of its target genes | hCAR nuclear translocation (in words) (EYFP-hCAR): didn’t translocate hCAR | hCAR nuclear translocation (in words) (EYFP-hCAR; listed as phenelzine): neither translocated hCAR
